Reference: patent EP0496617B1, “Adenosine kinase inhibitors” (priority 1991, dated 1992)
Where two headings read alike, the source gives them in different places.

Key:
[1] = tested on: guinea pig ileum; test: Inhibition of contraction in isolated ileum; details: electrically stimulated; reversal by 8SPT and ADA; Figure 3
Procedure: The ability of adenosine kinase inhibition to affect stimulated contraction of muscle strips from the isolated ileum has been investigated.
Parallel platinum electrodes were used to deliver electrical current at 1 minute intervals at a voltage adequate to induce contraction of 90% of maximal. The adenosine kinase inhibitors, GP-1-515 or GP-1-547 were added to the tissue baths at different concentrations, with or without either the adenosine receptor antagonist, 8-sulphophenyltheophylline (8SPT) or adenosine deaminase (ADA), and the effects on contraction monitored.

[2] = tested on: Isolated guinea pig hearts; test: Functional recovery in isolated hearts after low flow ischemia (Langendorff); details: Conc. 0.3 ( M) in perfusion buffer; for Functional Recovery (% preischemic LVDP): 45 minutes low flow ischemia, 30 minutes reperfusion
Procedure: The ability of a number of adenosine kinase inhibitors to improve the recovery of post-ischemic function was examined in an isolated guinea pig heart model.
Isolated guinea pig hearts were cannulated via the ascending aorta and attached to a perfusion apparatus according to the method of Langendorff. The hearts were perfused at a constant pressure of 60 cm of H2O with a modified Krebs-Hanseleit buffer (pH 7.4) at 37°C. Left ventricular developed pressures (LVDP) were monitored continuously using a latex balloon attached to a pressure transducer. Coronary flows were measured gravimetrically by timed collection of pulmonary effluent. Following equilibration of the hearts for a period of 30 minutes, the hearts were subjected to 45 minutes of low flow ischemia, by reducing the perfusion pressure to 10 cm of H2O, and then reperfused for 30 minutes by restoring the pressure to its. original level (60 cm of H2O). The adenosine kinase inhibitors GP-1-238, GP-1-515 and GP1-547 were added to the perfusion buffer at the final concentrations specified. […] TABLE A

[3] = tested on: rat cardiomyocytes; details: inhibition of adenosine deaminase alone; cited from earlier work
[4] = tested on: human umbillical vein endothelial cells; test: Inhibition of neutrophil adherence to endothelial cells; type: cell-based; details: fMLP-stimulated human neutrophils, 2 hours at 37°C; reversed by adenosine deaminase; Figure 2
Procedure: The ability of an adenosine kinase inhibitor to affect neutrophil adherence to fibroblasts and endothelial cells was evaluated in a cell culture model.
These incubations were carried out in the presence of fMLP-stimulated human neutrophils isolated from whole blood (1.25 x 10^6/ml) with or without adenosine deaminase (0.125 U/ml). At the end of the incubation, the medium was removed and the monolayers of fibroblasts or endothelial cells and adherent neutrophils were fixed by addition of formaldehyde (3.7%) and, after washing to remove non-adherent neutrophils, adherent neutrophils were stained with Weigart's hematoxylin and counted under a light microscope.

[5] = in human blood; cited from earlier work
[6] = molecular target: purified pig heart adenosine kinase (Sus scrofa, UniProt A0A5G2R0F5); test: Inhibition of adenosine kinase activity; type: biochemical
Procedure: Inhibition of enzyme activity was determined using a 0.1 ml assay mixture containing 50 mM Tris-maleate, pH 7.0, 0.1% (w/v) BSA, 1 mM ATP, 1 mM MgCl2, 0.5 µM [U-^14C] adenosine (500 mCi/mmol) and 0.1 µg of purified pig heart adenosine kinase. Different concentrations of the test compounds were incubated in the assay mixture for 20 min at 37°C. From each reaction mixture, 20 µl portions were removed and spotted on 2 cm^2 pieces of Whatman DE81 filter paper. The papers were then washed to remove [^14C] adenosine in 1mM ammonium formate followed by deionized water and finally 95% ethanol. The papers were dried, and [^14C]AMP measured by scintillation counting. Activities were determined from the amount of [^14C]AMP formed. This is a suitable in vitro test method for determining adenosine kinase enzyme inhibition activity.

[7] = tested on: Anesthetized male dogs; test: Preclinical model of stable angina (pacing-induced ischemia); type: in vivo
Procedure: GP-1-515, was evaluated for its ability to prevent cumulative cardiac dysfunction associated with repeated episodes of pacing-induced ischemia.
Anesthetized male dogs were instrumented to measure regional myocardial wall thickening during right atrial pacing (Young & Mullane, Am. J. Physio., 1991, 261:1570-1577). Animals were subjected to six repeated episodes of pacing. A continuous IV infusion of […] of GP-1-515 or saline (control) -was administered post pace #1. […] TABLE B

[8] = tested on: platelet-induced coronary thrombosis; test: Canine model of platelet-induced coronary thrombosis (Folts, cyclic flow reductions); type: in vivo
Procedure: GP-1-515 was tested in a canine model of platelet-induced coronary thrombosis (Folts, J., Circulation, 1991, 83[Suppl. IV]:IV-3-IV-14). In this model, platelets cyclically aggregate and embolize causing cyclic flow reductions (CFRs) that are quantitated by the frequency and the change in coronary blood flow from low point to peak with each cycle. […] TABLE C

[9] = molecular target: T1, calf intestinal mucosa adenosine deaminase (Bos taurus, UniProt P56658); test: Inhibition of adenosine deaminase activity; type: biochemical; details: 10 min at 37°C
T1 construct: 0.002 units of calf intestinal mucosa adenosine deaminase; from tissue; host or cells: calf intestinal mucosa
T1 sequence (P56658 1-363): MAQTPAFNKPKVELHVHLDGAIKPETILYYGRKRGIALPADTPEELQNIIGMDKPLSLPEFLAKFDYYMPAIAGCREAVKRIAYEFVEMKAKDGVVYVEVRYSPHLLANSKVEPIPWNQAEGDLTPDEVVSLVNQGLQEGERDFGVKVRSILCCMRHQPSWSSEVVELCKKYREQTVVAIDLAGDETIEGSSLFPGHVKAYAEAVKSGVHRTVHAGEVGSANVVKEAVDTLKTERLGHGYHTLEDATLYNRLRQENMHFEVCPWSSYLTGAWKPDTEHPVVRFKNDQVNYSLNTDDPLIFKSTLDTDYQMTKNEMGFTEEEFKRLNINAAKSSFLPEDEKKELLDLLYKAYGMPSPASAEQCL
Procedure: Different concentrations of the test compounds were incubated in the assay mixture for 10 min at 37°C. The reaction was monitored continuously for oxidation of NADH from the change in absorbance at 340nm.

[10] = molecular target: adenosine kinase (Bos taurus, UniProt A0AAA9TET8); test: Adenosine kinase inhibition in intact cells; type: cell-based
Procedure: Inhibition of adenosine kinase in intact cells was determined from the amount of incorporation of radioisotope from adenosine into the adenylates (AMP, ADP and ATP) in the presence of adenosine deaminase inhibition. Capillary endothelial cells from bovine heart were incubated for 60 min. With 20 µM 2'-deoxycoformycin, a potent adenosine deaminase inhibitor. Different concentrations of the test compounds were then added to the cells and incubated for 15 min. after which 5 µM [^3H]adenosine was added and the cells incubated for a further 15 min. The media was then discarded and the cells were treated with 50 µl 0.4 M perchloric acid, centrifuged and the supernatants neutralized with 100 µl alanine: freon (1:4). Radiosotope-labelled adenylates were separated by TLC on PEI cellulose plates developed in methanol:water (1:1) and incorporation of ^3H determined by scintillation counting.

[11] = molecular target: T2, A1 receptor (Homo sapiens, UniProt P30542); test: A1 receptor binding affinity ([3H]CHA, neuronal membrane); details: 1 nM [3H]CHA, 60 min at 37°C
T2 construct: 1 nM [^3H]CHA and 0.5 mg of neuronal membrane; from tissue
T2 sequence (P30542 1-326): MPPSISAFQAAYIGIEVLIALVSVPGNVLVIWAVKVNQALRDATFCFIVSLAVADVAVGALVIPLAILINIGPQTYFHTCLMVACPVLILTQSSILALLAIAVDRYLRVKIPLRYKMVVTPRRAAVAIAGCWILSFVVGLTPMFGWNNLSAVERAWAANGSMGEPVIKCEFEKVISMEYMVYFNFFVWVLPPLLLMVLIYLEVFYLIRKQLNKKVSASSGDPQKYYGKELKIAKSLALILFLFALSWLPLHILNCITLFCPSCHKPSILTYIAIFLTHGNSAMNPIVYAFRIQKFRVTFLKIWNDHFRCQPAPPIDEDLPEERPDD
Source text: The reaction was stopped and unbound [^3H]CHA removed by rapid filtration through Whatman GF/B filters. The filter papers were then solubilized and bound [^3H]CHA determined by scintillation counting.

[12] = tested on: Male Swiss Webster mice; test: PTZ-induced seizures; type: in vivo; details: IP at doses of 1, 5 and 10 mg/kg, 45 minutes before PTZ; Figure 4 A
Procedure: The ability of selected adenosine kinase inhibitors to influence PTZ-induced seizures was evaluated in an experimental animal model.
[…] After injections of the convulsant, animals were isolated in separate cages and observed for the onset of seizure.

[13] = tested on: rat brain slices; details: cited from earlier work
[14] = tested on: mice; details: cited from earlier work
[15] = tested on: anesthetized rats; details: cited from earlier work
[16] = tested on: guinea pig brain slices; details: cited from earlier work
[17] = tested on: rats; test: Electroshock-induced seizures; type: in vivo; details: for No. of Animals (protected/tested): 1 hour before electroshock
Procedure: The ability of the adenosine kinase inhibitors to influence electroshock-induced seizures was also evaluated in an experimental model.
After 1 hour, corneal electrodes were applied to the eyes of each animal and an electrical stimulus of 160 mA delivered for 0.2 seconds. Animals were isolated in separate cages and observed for seizure. Abolition of the hindleg tonic extensor component is taken as the end point for this test and reflects ability of the compound to prevent seizure spread.

[18] = read-out: IC50 in the adenosine kinase inhibition assay

Chain of purified pig heart adenosine kinase (A0A5G2R0F5 1-362): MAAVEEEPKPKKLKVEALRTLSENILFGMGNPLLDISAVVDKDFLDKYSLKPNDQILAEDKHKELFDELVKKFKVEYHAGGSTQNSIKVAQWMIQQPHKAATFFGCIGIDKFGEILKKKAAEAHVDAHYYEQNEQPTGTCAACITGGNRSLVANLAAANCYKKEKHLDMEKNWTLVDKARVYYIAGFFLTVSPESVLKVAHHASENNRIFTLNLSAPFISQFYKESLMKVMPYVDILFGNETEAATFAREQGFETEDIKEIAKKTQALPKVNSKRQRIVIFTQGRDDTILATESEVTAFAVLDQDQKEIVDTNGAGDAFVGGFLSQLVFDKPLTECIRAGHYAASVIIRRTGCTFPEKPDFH
Chain of adenosine kinase (A0AAA9TET8 1-345): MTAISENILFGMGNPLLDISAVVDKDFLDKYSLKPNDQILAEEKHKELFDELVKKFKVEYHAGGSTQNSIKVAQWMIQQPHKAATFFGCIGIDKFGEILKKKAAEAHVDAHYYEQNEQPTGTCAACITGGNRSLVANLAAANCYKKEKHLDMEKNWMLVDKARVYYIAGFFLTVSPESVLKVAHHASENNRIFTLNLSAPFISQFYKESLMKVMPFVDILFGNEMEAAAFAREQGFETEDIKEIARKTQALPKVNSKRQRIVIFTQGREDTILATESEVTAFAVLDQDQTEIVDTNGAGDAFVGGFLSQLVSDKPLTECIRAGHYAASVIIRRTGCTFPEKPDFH

NC[C@H]1O[C@@H](n2nc(I)c3c(N)ncnc32)[C@H](O)[C@@H]1O [GP-1-547]
contraction of longitudinal muscle of the ileum [1]: Inhibition of contraction
Preischemic Flow [2]: 6.2 ± 0.3 mL/min/g
Functional Recovery (% preischemic LVDP) [2]: 79.0 ± 3.1 % preischemic LVDP

OC[C@H]1O[C@@H](n2cnc3c2N=CNC[C@H]3O)C[C@@H]1O [2'-deoxycoformycin]
adenosine release from the cells [3]: no effect on adenosine release

CNc1ncnc2c1ncn2[C@@H]1O[C@H](CN)[C@@H](O)[C@H]1O [GP-1-272]
neutrophil adhesion to endothelial cells [4]: inhibit neutrophil adhesion to endothelial cells

Nc1ncnc2c1ncn2[C@@H]1O[C@H](CO)[C@@H](O)[C@H]1O [adenosine]
half life [5]: < 1 s

NC[C@H]1O[C@@H](n2cc(Br)c3c(Cl)ncnc32)[C@H](O)[C@@H]1O [GP-1-608, 7-(5-Amino-5-deoxy-1-β-D-ribofuranosyl)-5-bromo-4-chloropyrrolo [2,3-d]pyrimidine]
IC50 [6, 18]: < 10 nM

OC[C@H]1O[C@@H](n2nc(-c3ccccc3)c3c(Nc4ccccc4)ncnc32)[C@H](O)[C@@H]1O [GP-1-695]
IC50 [6, 18]: < 10 nM

NC[C@H]1O[C@@H](n2nc(Br)c3c(N)ncnc32)[C@H](O)[C@@H]1O [GP-1-515]
% of Non-Ischemic Wall Thickening ([7]; Pace # 1 (infusion started post pace #1)): 39.8 ± 3.2%
% of Non-Ischemic Wall Thickening ([7]; Pace # 2, continuous IV infusion of 1 g/kg/min): 43.6 ± 12.0%
% of Non-Ischemic Wall Thickening ([7]; Pace # 3, continuous IV infusion of 1 g/kg/min): 34.0 ± 19.0%
% of Non-Ischemic Wall Thickening ([7]; Pace # 4, continuous IV infusion of 1 g/kg/min): 50.5 ± 21.3%
% of Non-Ischemic Wall Thickening ([7]; Pace # 5, continuous IV infusion of 1 g/kg/min): 75.6 ± 19.4%
% of Non-Ischemic Wall Thickening ([7]; Pace # 6, continuous IV infusion of 1 g/kg/min): 62.6 ± 17.1%
IC50 [6]: < 10 nM
(N abolished)/(N total) ([8]; 0.03 (dose, unit not given)): 1/8
CFR (D flow) ([8]; 0.03 (dose, unit not given)): 10.1 ± 2.6 (n=7)
CFR (freq.) ([8]; 0.03 (dose, unit not given)): 3.0 ± 0.6 (n=7)
(N abolished)/(N total) ([8]; 0.1 (dose, unit not given)): 3/8
CFR (D flow) ([8]; 0.1 (dose, unit not given)): 11.0 ± 2.1 (n=5)
CFR (freq.) ([8]; 0.1 (dose, unit not given)): 3.4 ± 0.8 (n=5)
(N abolished)/(N total) ([8]; 0.3 (dose, unit not given)): 3/8
CFR (D flow) ([8]; 0.3 (dose, unit not given)): 14.1 ± 1.9 (n=5)
CFR (freq.) ([8]; 0.3 (dose, unit not given)): 4.2 ± 0.6 (n=5)
CFRs abolished (animals) ([8]; summary): 3 of 8
contraction of longitudinal muscle of the ileum [1]: Inhibition of contraction
IC50 [9]: > 1 mM
IC50 ([10]; Capillary endothelial cells from bovine heart, 20 µM 2'-deoxycoformycin; read-out: IC50 in the adenosine kinase inhibition assay in intact cells): 9 nM
IC50 [11]: > 100 µM
Preischemic Flow [2]: 6.5 ± 0.3 mL/min/g
Functional Recovery (% preischemic LVDP) [2]: 79.0 ± 3.4 % preischemic LVDP

C[C@H]1O[C@@H](n2cc(I)c3c(N)ncnc32)[C@H](O)[C@@H]1O [GP-1-456, 5'-deoxy-5-iodotubercidin]
PTZ induced seizures [12]: dose-dependent inhibition
adenosine uptake [13]: inhibited
body temperature [14]: hypothermia
flaccidity and spontaneous locomotor activity [14]: pronounced general flaccidity and much-reduced spontaneous locomotor activity
blood pressure and heart rate [15]: decrease blood pressure and heart rate
neutrophil adhesion to endothelial cells [4]: inhibit neutrophil adhesion to endothelial cells
adenosine uptake [16]: inhibited
No. of Animals (protected/tested) ([17]; 0.05 mg/kg orally): 1/8
No. of Animals (protected/tested) ([17]; 0.10 mg/kg orally): 2/8
ED50 ([17]; Rattus norvegicus, po, 1 h, orally, rats, from the data of Table E, read-out: ED50 for protection of electroshock-induced seizures): 0.18 mg/kg

[N-]=[N+]=NC[C@H]1O[C@@H](n2nc(-c3ccccc3)c3c(Nc4ccccc4)ncnc32)[C@H](O)[C@@H]1O [GP-1-667]
IC50 [6, 18]: < 10 nM

NC[C@H]1O[C@@H](n2nc(-c3ccccc3)c3c(Nc4ccccc4)ncnc32)[C@H](O)[C@@H]1O [GP-1-704]
IC50 [6, 18]: < 10 nM

C[C@H]1O[C@@H](n2nc(-c3ccccc3)c3c(Nc4ccccc4)ncnc32)[C@H](O)[C@@H]1O [GP-1-665]
IC50 [6, 18]: < 10 nM
IC50 ([10]; read-out: IC50 in the adenosine kinase inhibition assay in intact cells; Capillary endothelial cells from bovine heart, 20 µM 2'-deoxycoformycin): 4.5 nM
